Measurements reported in paper PMC2736202 (2009).

Key:
Assay in all cases: electrospray mass spectrometry
[1] = tested on: UpsB-Q-1 (DNA, G4) CAGGGTTAAGGGTATAACTTTAGGGGTTAGGGTT; details: NH4+ 150 mM (NH4OAc); 20% methanol; 10 μM DNA, equimolar 10 μM BOQ1 in Figure 6B
[2] = tested on: UpsB-Q-4 (DNA, G4) CAGGGTTTAGGGTATAACTTTAGGGGTTAGGGTT; details: NH4+ 150 mM (NH4OAc); 20% methanol; 10 μM DNA
[3] = tested on: UpsB-Q-3 (DNA, G4) CAGGGTTAAGGGTATACATTTAGGGGTTAGGGTT; details: NH4+ 150 mM (NH4OAc); 20% methanol; 10 μM DNA
[4] = tested on: UpsB-Q-2 (DNA, G4) TAGGGTTAAGGGTATAACGTTAAGGGTTAGGGTT; details: NH4+ 150 mM (NH4OAc); 20% methanol; 10 μM DNA

- Kd [1]: 2.6 ± 0.5 µM
- Kd [2]: 2.7 ± 1.1 µM
- Kd [3]: 1.7 ± 0.7 µM
- Kd [4]: 1.4 ± 0.4 µM
SMILES: c1cc2nc3c4ccc5cc6cc(ccc6nc53)CNCCNCCNCc3ccc5nc6c(ccc7cc8cc(ccc8nc76)CNCCNCCNCc1cc2c4)cc5c3
